Residue numbers refer to the chain shown, from its start.
What was measured:
GIRK2 PIP L257W mutant = molecular target: T1, GIRK2 PIP L257W mutant (Mus musculus, UniProt P48542, D228N/I234L/L257W/M344L/N231K); assay: whole-cell patch clamp, GIRK2 PIP L257W mutant channel; assay type: cell-based; conditions: for IC50: dose response, read-out: IC50 for inhibition of GIRK2 PIP L257W mutant; for inhibition of GIRK2 PIP L257W mutant channel, percentage inhibition: equimolar alcohol series (50 mM)
T1 construct: expressed in transfected cells; host or cells: HEK293 / HEK293T
T1 sequence (P48542 1-425 D228N/N231K/I234L/L257W/M344L): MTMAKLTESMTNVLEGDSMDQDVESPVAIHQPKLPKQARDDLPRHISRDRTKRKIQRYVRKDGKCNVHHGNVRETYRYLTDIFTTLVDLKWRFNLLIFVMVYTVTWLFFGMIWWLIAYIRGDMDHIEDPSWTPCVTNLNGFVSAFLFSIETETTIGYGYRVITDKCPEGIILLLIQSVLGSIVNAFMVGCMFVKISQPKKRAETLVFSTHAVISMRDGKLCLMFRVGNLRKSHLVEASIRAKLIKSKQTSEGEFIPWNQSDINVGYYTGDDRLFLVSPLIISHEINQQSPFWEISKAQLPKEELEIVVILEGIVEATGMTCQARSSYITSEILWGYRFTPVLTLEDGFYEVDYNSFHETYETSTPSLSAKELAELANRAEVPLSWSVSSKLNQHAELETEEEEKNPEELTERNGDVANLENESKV
Method: Point mutations were introduced by Quickchange site directed mutagenesis kit (Stratagene). The GIRK2 PIP mutant was generated by overlap-PCR method. […] Mutations were confirmed by automated DNA sequencing methods. […] Cells were plated in a 12 well dish, and were transiently transfected using Lipofectamine 2000 (Invitrogen). After 12-24 hrs, cells were re-plated to 12-mm glass coverslips coated with poly-D-[…] microgram/ml). […] The cells were co-transfected with 0.04 micrograms of eYFP cDNA to identify transfected cells. 0.8 micrograms of Muscarinic Receptor 2 (M2R) was also co-transfected for experiments with Carbachol. […] Whole-cell patch clamp recordings were performed 24-72 hrs after transfection. […] Alcohols, 5 μM Carbachol, and 1 mM BaCl2 (diluted in 20K solution) were applied from outside the cell with the rapid perfusion system (Warner Instruments). […] Current-voltage relationships also were obtained from the ramp protocol. This protocol was used to measure the inwardly rectifying currents at -100 mV and to ensure stability of recording by monitoring a reversal potential and inward rectification. […] Alcohol and Carbachol modulated currents were measured by averaging two consecutive current readings upon reaching steady state, and subtracting the averaged basal current before and after the application of modulator.

[1] = molecular target: T2, GIRK2 channel (wild type) (Mus musculus, UniProt P48542); assay: whole-cell patch clamp, HEK293T cells transfected with GIRK2; assay type: cell-based; conditions: for desensitization of induced GIRK2 current in cells co-transfected with M2R and myristylated-phosducin / activation of wildtype GIRK2, percentage change from Ba++ sensitive basal current: 100 mM alcohols; for desensitization of induced GIRK2 current in cells co-transfected with M2R and myristylated-phosducin: 5 uM Carbachol
T2 construct: expressed in transfected cells; host or cells: HEK293T
T2 sequence (P48542 1-425): T1 sequence (P48542 1-425 D228N/N231K/I234L/L257W/M344L) with N228D, K231N, L234I, W257L, L344M
From the text: GIRK2c, GIRK4, IRK1, M2R and m-Phosducin were subcloned into PCDNA3.1 vector (Invitrogen). Point mutations were introduced by Quickchange site directed mutagenesis kit (Stratagene). The GIRK2 PIP mutant was generated by overlap-PCR method. Briefly, amino acid 216-NLRKSHL-222 (SEQ ID NO: 25) of IRK1 was swapped into 228-DLRNSHL-234 (SEQ ID NO: 26) of GIRK2, in the region designated βC-βD loop in the crystal structure. Mutations were confirmed by automated DNA sequencing methods.
HEK 293T cells were cultured in DMEM supplemented with 10% FBS, and 1× Glutamax (Invitrogen) in a humidified 37° incubator with 5% CO2. Cells were plated in a 12 well dish, and were transiently transfected using Lipofectamine 2000 (Invitrogen). After 12-24 hrs, cells were re-plated to 12-mm glass coverslips coated with poly-D-Lysine (20 microgram/ml).
HEK293 cells were transfected with 0.2 micrograms of channel cDNA. The cells were co-transfected with 0.04 micrograms of eYFP cDNA to identify transfected cells. 0.8 micrograms of Muscarinic Receptor 2 (M2R) was also co-transfected for experiments with Carbachol. For experiments with and without m-phosducin, 0.8 ug of m-phosducin cDNA was used versus a PCDNA3.1 vector control.
Whole-cell patch clamp recordings were performed 24-72 hrs after transfection. Borosilicate glass electrodes (Warner Instruments) of […] filled with intracellular solution (130 mM KCl, 20 mM NaCl, 5 mM EGTA, 2.56 mM K2ATP, 5.46 mM MgCl2, 0.30 mM Li2GTP, and 10 mM HEPES (pH 7.4)) was used. Membrane currents were recorded using Axopatch 200B (Axon Instruments) amplifier, adjusted electronically for cell capacitance and series resistance (80-100%), filtered at 1 kHz with an 8-pole Bessel filter and digitized at 5 kHz with a Digidata 1200 interface (Axon Instruments). The cells rapidly perfused with a 20 mM K^+ (20K) solution (20 mM KCl, 140 mM NaCl, 0.5 mM CaCl2, 2 mM MgCl2 and 10 mM HEPES (pH7.4)). Alcohols, 5 μM Carbachol, and 1 mM BaCl2 (diluted in 20K solution) were applied from outside the cell with the rapid perfusion system (Warner Instruments). Whole-cell currents were measured using a ramp protocol that holds at −40 mV, steps to −100 mV then ramps to +50 mV and repeats every 2 seconds. Current-voltage relationships also were obtained from the ramp protocol. This protocol was used to measure the inwardly rectifying currents at −100 mV and to ensure stability of recording by monitoring a reversal potential and inward rectification. Current density was measured by dividing inward current at −100 mV by membrane capacitance that was compensated during the recording. Basal currents were measured as the Ba^++ blocked inward currents at −100 mV. Alcohol and Carbachol modulated currents were measured by averaging two consecutive current readings upon reaching steady state, and subtracting the averaged basal current before and after the application of modulator. Pooled data are presented as Mean±SEM and evaluated for statistical significance by a 1-way ANOVA, followed by Bonferroni's multiple comparison post-hoc test.

| IC50 (GIRK2 PIP L257W mutant) | inhibition of GIRK2 PIP L257W mutant channel, percentage inhibition (GIRK2 PIP L257W mutant) | percent change of basal current, GIRK2 (positive = activation) ([1]; 100 mM MPD, -100 mV, n=5) | activation of wildtype GIRK2, percentage change from Ba++ sensitive basal current ([1]; n=32) | concentration inducing a noticeable activation of GIRK currents ([1]; dose response, GIRK2) | G-protein activation of wildtype GIRK2 by Carbachol, percentage change from basal current ([1]; 5 μM Carbachol, M2R co-transfected, n=32) | Compound | desensitization of induced GIRK2 current in cells co-transfected with M2R and myristylated-phosducin [1] |
| --- | --- | --- | --- | --- | --- | --- | --- |
| ~7.7 mM | −84±3% | 246±26.7% | 305±19% | 10 mM | – | CC(O)CC(C)(C)O (racemic) [MPD, 2-methyl-2,4-pentanediol] | no desensitization |
| – | −20±2% | – | 119±5% | – | – | CCO [EtOH, ethanol] | no desensitization |
| ~5.1 mM | −92±1% | – | 486±34% | – | – | 1-propanol [1-PrOH] | no desensitization |
| – | −99±3% | – | – | – | – | 1-butanol [1-BuOH] | – |
| – | – | – | – | – | 928±141% | C[N+](C)(C)CCOC(N)=O [Carbachol] | rapid activation and desensitization |

Reference: patent US8097422B2, “Kir channel modulators” (Salk Institute for Biological Studies, priority 2007, dated 2012)
